In US10287255B2, “Compounds as histone deacetylase 6 inhibitors and pharmaceutical compositions comprising the same” (CHONG KUN DANG PHARMACEUTICAL CORP., priority 2014, dated 2019):

Tests used:
human recombinant HDAC1 = target: T1, human recombinant HDAC1 (Homo sapiens, UniProt Q13547); assay: HDAC1 enzyme activity inhibition assay (in vitro, fluorimetric); format: biochemical; settings: human recombinant HDAC1, fluorimetric kit, 30° C. 60 minutes
T1 construct: purchased Enzo Life Science BML-SE456
T1 sequence (Q13547 whole entry): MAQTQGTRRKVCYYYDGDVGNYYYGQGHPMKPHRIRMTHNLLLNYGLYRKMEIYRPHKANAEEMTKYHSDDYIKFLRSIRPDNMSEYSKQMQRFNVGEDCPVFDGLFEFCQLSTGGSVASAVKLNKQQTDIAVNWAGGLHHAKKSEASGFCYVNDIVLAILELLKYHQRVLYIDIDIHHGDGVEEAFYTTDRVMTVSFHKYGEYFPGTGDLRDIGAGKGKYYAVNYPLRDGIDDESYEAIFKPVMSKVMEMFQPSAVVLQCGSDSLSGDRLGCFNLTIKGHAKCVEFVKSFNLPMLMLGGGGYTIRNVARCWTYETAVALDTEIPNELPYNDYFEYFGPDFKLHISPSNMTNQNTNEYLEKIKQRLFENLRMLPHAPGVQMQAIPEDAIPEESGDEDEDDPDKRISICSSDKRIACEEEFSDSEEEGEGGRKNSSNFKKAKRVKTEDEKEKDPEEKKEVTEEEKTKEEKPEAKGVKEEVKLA
Description: (§1) In order to examine the HDAC6 selectivity of the compounds of formula 1 of the present invention by HDAC1 and HDAC6 enzymatic activity inhibition assays, an experiment was performed using a conventional substance as a control.
(§2) HDAC enzyme activity was measured using a HDAC Fluorimetric Drug Discovery Kit (BML-AK511, 516, Enzo Life Science). For the HDAC1 enzyme activity test, human recombinant HDAC1 (BML-SE456) was used as an enzyme source, and Fluor de Lys®-“SIRT1 (BNL-KI177) was used as a substrate. A 5-fold dilution of the compound was seeded into a 96-well plate, and then 0.3 μg of the enzyme and 10 μM of the substrate were added to each well of the plate and allowed to react at 30° C. for 60 minutes. Then, Fluor de Lys® Developer II (BML-KI176) was added thereto and allowed to react for 30 minutes, after which the fluorescence value (Ex 360, Em 460) was measured using a multi-plate reader (Flexstation 3, Molecular Device). The HDAC6 enzyme was tested using human recombinant HDAC6 (382180) (Calbiochem) according to the same protocol as the HDAC1 enzyme activity test method. Based on the resulting values, each IC50 value was calculated using GraphPad Prism4.0 program.

human recombinant HDAC6 = target: T2, human recombinant HDAC6 (Homo sapiens, UniProt Q9UBN7); assay: HDAC6 enzyme activity inhibition assay (in vitro, fluorimetric); format: biochemical; settings: for HDAC6 selectivity (fold): HDAC6 selectivity over HDAC1; for IC50: human recombinant HDAC6, fluorimetric kit, same protocol as HDAC1
T2 construct: purchased Calbiochem 382180
T2 sequence (Q9UBN7 1-1215): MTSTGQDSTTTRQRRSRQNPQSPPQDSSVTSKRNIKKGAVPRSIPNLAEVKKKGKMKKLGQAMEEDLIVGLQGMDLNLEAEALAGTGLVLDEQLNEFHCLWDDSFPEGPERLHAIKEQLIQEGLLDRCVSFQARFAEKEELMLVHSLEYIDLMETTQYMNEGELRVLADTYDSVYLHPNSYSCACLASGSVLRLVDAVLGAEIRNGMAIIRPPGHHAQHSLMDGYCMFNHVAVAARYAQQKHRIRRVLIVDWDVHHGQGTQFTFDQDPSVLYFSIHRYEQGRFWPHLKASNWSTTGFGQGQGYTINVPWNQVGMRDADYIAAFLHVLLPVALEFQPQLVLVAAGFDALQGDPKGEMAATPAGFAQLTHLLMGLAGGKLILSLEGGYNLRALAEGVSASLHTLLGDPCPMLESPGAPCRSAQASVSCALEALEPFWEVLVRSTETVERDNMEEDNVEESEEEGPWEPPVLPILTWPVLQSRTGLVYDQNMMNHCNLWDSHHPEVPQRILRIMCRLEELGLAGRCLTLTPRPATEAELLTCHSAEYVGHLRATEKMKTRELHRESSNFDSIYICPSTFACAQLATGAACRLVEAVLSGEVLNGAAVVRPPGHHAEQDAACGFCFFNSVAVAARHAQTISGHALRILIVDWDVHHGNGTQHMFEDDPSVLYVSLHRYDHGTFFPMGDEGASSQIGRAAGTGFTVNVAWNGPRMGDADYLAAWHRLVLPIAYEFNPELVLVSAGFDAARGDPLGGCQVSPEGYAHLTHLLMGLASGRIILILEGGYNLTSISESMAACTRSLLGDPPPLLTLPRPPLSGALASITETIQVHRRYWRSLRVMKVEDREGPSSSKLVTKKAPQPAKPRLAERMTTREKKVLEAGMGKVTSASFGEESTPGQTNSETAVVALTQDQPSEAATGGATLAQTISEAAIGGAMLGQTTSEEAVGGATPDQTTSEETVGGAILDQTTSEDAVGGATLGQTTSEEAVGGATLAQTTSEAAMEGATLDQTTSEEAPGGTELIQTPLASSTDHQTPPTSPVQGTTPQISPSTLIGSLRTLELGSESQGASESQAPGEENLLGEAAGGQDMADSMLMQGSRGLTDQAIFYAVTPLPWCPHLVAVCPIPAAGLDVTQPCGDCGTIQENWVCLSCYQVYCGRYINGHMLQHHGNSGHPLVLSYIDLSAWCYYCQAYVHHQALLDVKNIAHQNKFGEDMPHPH
Description: as §1, §2

| Compound | IC50 (human recombinant HDAC1) [nM] | HDAC6 selectivity (fold) (human recombinant HDAC6) | IC50 (human recombinant HDAC6) [nM] |
| --- | --- | --- | --- |
| C[C@@H]1CN(Cc2ccc(CC(=O)NO)cc2)C[C@H](C)N1Cc1ccccc1 [Compound 173, 2-(4-(((3R,5S)-4-benzyl-3,5-dimethylpiperazin-1-yl)methyl)phenyl)-N-hydroxyacetamide] | 7200 | 85 | 85 |
| C[C@@H]1CN(Cc2ccccc2)C[C@H](C)N1Cc1ccc(C(=O)NO)c(F)c1 [Compound 174, 4-(((2S,6R)-4-benzyl-2,6-dimethylpiperazin-1-yl)methyl)-2-fluoro-N-hydroxybenzamide] | > 10000 | >103 | 97 |
| C[C@@H]1CN(Cc2ccccc2)C[C@H](C)N1Cc1ccc(/C=C/C(=O)NO)cc1 [Compound 175, (E)-3-(4-(((2S,6R)-4-benzyl-2,6-dimethylpiperazin-1-yl)methyl)phenyl)-N-hydroxyacrylamide] | 6100 | 90 | 68 |
| C[C@@H]1CN(Cc2ccc(C(=O)NO)cc2)C[C@H](C)N1C(=O)Oc1ccccc1 [Compound 177, phenyl(2S,6R)-4-(4-(hydroxycarbamoyl)benzyl)-2,6-dimethylpiperazine-1-carboxylate] | 5800 | 186 | 31 |
| C[C@@H]1CN(CCc2ccccc2)C[C@H](C)N1Cc1ccc(C(=O)NO)cc1 [Compound 183, 4-(((2S,6R)-2,6-dimethyl-4-phenethylpiperazin-1-yl)methyl)-N-hydroxybenzamide] | > 10000 | >20 | 500 |
| C[C@@H]1CN(Cc2ccc(C(=O)NO)cc2)C[C@H](C)N1C(=O)CCc1ccccc1 [Compound 188, 4-(((3R,5S)-3,5-dimethyl-4-(3-phenylpropanoyl)piperazin-1-yl)methyl)-N-hydroxybenzamide] | 13600 | 71 | 191 |
| C[C@@H]1CN(CC(C)(C)F)C[C@H](C)N1Cc1ccc(C(=O)NO)cc1 [Compound 193, 4-(((2S,6R)-4-(2-fluoro-2-methylpropyl)-2,6-dimethylpiperazin-1-yl)methyl)-N-hydroxybenzamide] | 16300 | 60 | 271 |
| C[C@@H]1CN(Cc2ccc(C(=O)NO)cn2)C[C@H](C)N1Cc1ccccc1 [Compound 194, 6-(((3R,5S)-4-benzyl-3,5-dimethylpiperazin-1-yl)methyl)-N-hydroxynicotinamide] | 24800 | 303 | 82 |
| C[C@@H]1CN(Cc2ccccc2)C[C@H](C)N1Cc1ccc(C(=O)NO)cn1 [Compound 195, 6-(((2S,6R)-4-benzyl-2,6-dimethylpiperazin-1-yl)methyl)-N-hydroxynicotinamide] | 22400 | 55 | 410 |
| C[C@@H]1CN(C(=O)N(C)c2ccccc2)C[C@H](C)N1Cc1ccc(C(=O)NO)cc1 [Compound 196, (3R,5S)-4-(4-(hydroxycarbamoyl)benzyl)-N,3,5-trimethyl-N-phenylpiperazine-1-carboxamide] | 14400 | 97 | 148 |

Stronger by IC50 (human recombinant HDAC1), values ahead:

| IC50 (human recombinant HDAC1) [nM] | HDAC6 selectivity (fold) (human recombinant HDAC6) | IC50 (human recombinant HDAC6) [nM] | Compound |
| --- | --- | --- | --- |
| 4300 | 10 | 452 | Cc1ccccc1NC(=O)N1C[C@@H](C)N(Cc2ccc(C(=O)NO)cc2)[C@@H](C)C1 [Compound 166, (3R,5S)-4-(4-(hydroxycarbamoyl)benzyl)-3,5-dimethyl-N-o-tolylpiperazine-1-carboxamide] |
| 3000 | 10 | 303 | Cc1cccc(NC(=S)N2C[C@@H](C)N(Cc3ccc(C(=O)NO)cc3)[C@@H](C)C2)c1 [Compound 189, 4-(((2S,6R)-2,6-dimethyl-4-(m-tolylcarbamothioyl)piperazin-1-yl)methyl)-N-hydroxybenzamide] |
| 2200 | 7 | 316 | C[C@@H]1CN(C(=O)NCc2ccccc2)C[C@H](C)N1Cc1ccc(C(=O)NO)cc1 [Compound 168, (3R,5S)-N-benzyl-4-(4-(hydroxycarbamoyl)benzyl)-3,5-dimethylpiperazine-1-carboxamide] |
| 1400 | 2 | 560 | COc1ccc(NC(=O)N2C[C@@H](C)N(Cc3ccc(C(=O)NO)cc3)[C@@H](C)C2)cc1 [Compound 165, (3R,5S)-4-(4-(hydroxycarbamoyl)benzyl)-N-(4-methoxyphenyl)-3,5-dimethylpiperazine-1-carboxamide] |
| 1300 | 35 | 38 | C[C@@H]1CN(Cc2ccc(/C=C/C(=O)NO)cc2)C[C@H](C)N1Cc1ccccc1 [Compound 172, (E)-3-(4-(((3R,5S)-4-benzyl-3,5-dimethylpiperazin-1-yl)methyl)phenyl)-N-hydroxyacrylamide] |
| 1100 | 2 | 497 | COc1ccccc1NC(=O)N1C[C@@H](C)N(Cc2ccc(C(=O)NO)cc2)[C@@H](C)C1 [Compound 163, (3R,5S)-4-(4-(hydroxycarbamoyl)benzyl)-N-(2-methoxyphenyl)-3,5-dimethylpiperazine-1-carboxamide] |
| 1100 | 5 | 239 | C[C@@H]1CN(C(=O)Nc2ccc3c(c2)CCO3)C[C@H](C)N1Cc1ccc(C(=O)NO)cc1 [Compound 187, (3R,5S)-N-(2,3-dihydrobenzofuran-5-yl)-4-(4-(hydroxycarbamoyl)benzyl)-3,5-dimethylpiperazine-1-carboxamide] |
| 800 | 10 | 77 | Cc1cccc(NC(=O)N2C[C@@H](C)N(Cc3ccc(C(=O)NO)cc3)[C@@H](C)C2)c1 [Compound 167, (3R,5S)-4-(4-(hydroxycarbamoyl)benzyl)-3,5-dimethyl-N-m-tolylpiperazine-1-carboxamide] |
| 800 | 3 | 249 | C[C@@H]1CN(C(=O)Nc2ccc3c(ccn3C)c2)C[C@H](C)N1Cc1ccc(C(=O)NO)cc1 [Compound 185, (3R,5S)-4-(4-(hydroxycarbamoyl)benzyl)-3,5-dimethyl-N-(1-methyl-1 H -indol-5-yl)piperazine-1-carboxamide] |
| 500 | 4 | 135 | COc1cccc(NC(=O)N2C[C@@H](C)N(Cc3ccc(C(=O)NO)cc3)[C@@H](C)C2)c1 [Compound 164, (3R,5S)-4-(4-(hydroxycarbamoyl)benzyl)-N-(3-methoxyphenyl)-3,5-dimethylpiperazine-1-carboxamide] |
| 400 | 5 | 79 | C[C@@H]1CN(C(=O)Nc2ccccc2)C[C@H](C)N1Cc1ccc(C(=O)NO)cc1 [Compound 162, (3R,5S)-4-(4-(hydroxycarbamoyl)benzyl)-3,5-dimethyl-N-phenylpiperazine-1-carboxamide] |
| 300 | 65 | 5 | C[C@@H]1CN(C(=O)Nc2cccc(-n3cccc3)c2)C[C@H](C)N1Cc1ccc(C(=O)NO)cc1 [Compound 186, (3R,5S)-N-(3-(1 H-pyrrol-1-yl)phenyl)-4-(4-(hydroxycarbamoyl)benzyl)-3,5-dimethylpiperazine-1-carboxamide] |
